The text below walks through data of US20250346564A1 (ARase Therapeutics Inc., priority 2022, published 2025).

SMILES strings stand for the structures.

Chain of PARG (Q86W56 whole entry): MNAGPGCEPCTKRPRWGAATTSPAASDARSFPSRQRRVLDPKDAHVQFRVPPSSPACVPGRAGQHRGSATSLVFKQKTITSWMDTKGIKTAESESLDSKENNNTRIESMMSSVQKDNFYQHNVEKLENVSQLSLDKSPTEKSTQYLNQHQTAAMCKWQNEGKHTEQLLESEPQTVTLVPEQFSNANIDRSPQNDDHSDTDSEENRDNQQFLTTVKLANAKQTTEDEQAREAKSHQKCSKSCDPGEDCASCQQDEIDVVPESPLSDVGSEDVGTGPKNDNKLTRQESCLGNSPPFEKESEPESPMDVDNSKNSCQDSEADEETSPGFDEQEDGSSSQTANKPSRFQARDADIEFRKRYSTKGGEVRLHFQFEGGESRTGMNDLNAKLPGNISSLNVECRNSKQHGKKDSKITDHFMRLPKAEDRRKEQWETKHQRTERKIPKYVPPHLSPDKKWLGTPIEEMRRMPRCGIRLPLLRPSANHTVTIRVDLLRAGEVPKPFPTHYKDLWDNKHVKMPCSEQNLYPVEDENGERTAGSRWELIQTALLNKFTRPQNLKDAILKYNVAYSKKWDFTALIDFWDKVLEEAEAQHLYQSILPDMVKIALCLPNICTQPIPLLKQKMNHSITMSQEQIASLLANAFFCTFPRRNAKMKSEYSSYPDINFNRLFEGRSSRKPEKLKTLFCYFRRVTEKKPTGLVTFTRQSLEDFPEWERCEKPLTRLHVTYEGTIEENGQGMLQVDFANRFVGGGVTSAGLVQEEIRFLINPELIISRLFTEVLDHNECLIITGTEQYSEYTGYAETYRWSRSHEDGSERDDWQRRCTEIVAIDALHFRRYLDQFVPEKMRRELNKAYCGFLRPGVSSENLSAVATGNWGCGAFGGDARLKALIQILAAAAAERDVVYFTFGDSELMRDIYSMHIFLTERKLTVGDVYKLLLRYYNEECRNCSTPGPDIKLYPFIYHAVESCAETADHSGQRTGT

The experiment deals with PARG (Homo sapiens (Human), UniProt Q86W56). Put plainly: PARG TFMU assay (4-(trifluoromethyl)umbelliferone substrate). To be noted: PARG 250 pM or 2 nM, 10-point dose response. Format: biochemical. The procedure:
Example C. Inhibition of PARG TEMU Assay
The ability of the compounds of the Examples to inhibit PARG activity in 4. (trifluoromethyl)umbelliferone (TFMU) assay was determined as described below. PARG inhibitors were added into 384 well plate for a 10-point dose response curve at 1:3 dilutions. TFMU PARG substrate and PARG (250 pM or 2 nM) were then added to the plate to initiate enzymatic reaction. After incubation with the reagent, […] was read. IC50 values were calculated using set control points for 100% inhibition as no enzyme and 0% inhibition 250 pM or 2 nM of PARG enzyme.
As to `CC(C)C(=O)N1CCN(c2cc(S(=O)(=O)N[C@@]3(C)CO[C@H]3C)cc3c2cnn3-c2nnc(C(F)F)s2)CC1` (single isomer, unassigned) [Example 27], the IC50 was less than 50 nM.

In turn, `C=C[C@@H]1C[C@]1(C#N)NS(=O)(=O)c1ccc2c(c1)c(=O)n(CC)c(=O)n2CC` (single isomer, unassigned) [Example 51] came in with an IC50 of no less than 5000 nM.

With `C=C[C@@H]1C[C@@]1(C#N)NS(=O)(=O)c1ccc2c(c1)c(=O)n(CC)c(=O)n2CC` (single isomer, unassigned) [Example 52], the IC50 is no less than 5000 nM.

For `CCn1c(=O)c2cc(S(=O)(=O)N[C@@]3(C#N)CO[C@H]3C)ccc2n(CC)c1=O` (single isomer, unassigned) [Example 61], the IC50 lay in the range of 500 to 5000 nM.

Regarding `CCn1c(=O)c2cc(S(=O)(=O)N[C@@H]3CC[C@H]3CO)ccc2n(CC)c1=O` (single isomer, unassigned) [Example 74], the half-inhibitory concentration (IC50) is no less than 5000 nM.

`CCn1c(=O)c2cc(S(=O)(=O)N[C@H]3CC[C@@H]3CO)ccc2n(CC)c1=O` (single isomer, unassigned) [Example 75] had an IC50 of no less than 5000 nM.

`CCn1c(=O)c2cc(S(=O)(=O)N[C@@]3(C#N)C[C@@H]3CO)ccc2n(CC)c1=O` (single isomer, unassigned) [Example 78] had an IC50 of no less than 5000 nM.

In turn, `CC(C)C(=O)N1CCN(c2cc(S(=O)(=O)NC3(C)COC3)cc3c2cnn3-c2nnc(C(F)F)s2)C[C@@H]1C` (single isomer, unassigned) [Example 79] displayed an IC50 of less than 50 nM.

The molecule `CC(C)C(=O)N1CCN(c2cc(S(=O)(=O)NC3(C)CCC3)cc3c2cnn3-c2nnc(C(F)F)s2)CC1` [Example 21, 1-(5-(difluoromethyl)-1,3,4-thiadiazol-2-yl)-4-(4-isobutyrylpiperazin-1-yl)-N-(1-methylcyclobutyl)-1H-indazole-6-sulfonamide] gave a 50% inhibitory concentration (IC50) of 50 to 500 nM.

`CC(C)C(=O)N1CCN(c2cc([S@TB20](=O)(=O)NC3(CF)COC3)cc3c2cnn3-c2nnc(C(F)F)s2)CC1` [Example 22, 1-(5-(difluoromethyl)-1,3,4-thiadiazol-2-yl)-N-(3-(fluoromethyl)oxetan-3-yl)-4-(4-isobutyrylpiperazin-1-yl)-1H-indazole-6-sulfonamide] displayed an IC50 of less than 50 nM.

Regarding `CC1(NS(=O)(=O)c2ccc3cnn(-c4nnc(C(F)F)s4)c3c2)COC1` [Example 23, 1-(5-(difluoromethyl)-1,3,4-thiadiazol-2-yl)-N-(3-methyloxetan-3-yl)-1H-indazole-6-sulfonamide], the IC50 fell in the range of 50 to 500 nM.

`CC1(NS(=O)(=O)c2cc(Cl)c3cnn(-c4nnc(C(F)F)s4)c3c2)COC1` [Example 24] displayed an IC50 of 50 to 500 nM.

Consider `Cc1ncc(Cn2c(=O)[nH]c3ccc(S(=O)(=O)NC4(C#N)COC4)cc3c2=O)s1` [Example 25A, N-(3-cyanooxetan-3-yl)-3-((2-methylthiazol-5-yl)methyl)-2,4-dioxo-1,2,3,4-tetrahydroquinazoline-6-sulfonamide], for which the half-maximal inhibitory concentration (IC50) lay within 50 to 500 nM.

`Cc1ncc(Cn2c(=O)c3cc(S(=O)(=O)NC4(C#N)COC4)ccc3n(Cc3sc(C)nc3C)c2=O)s1` [Example 25B, N-(3-cyanooxetan-3-yl)-1-((2,4-dimethylthiazol-5-yl)methyl)-3-((2-methylthiazol-5-yl)methyl)-2,4-dioxo-1,2,3,4-tetrahydroquinazoline-6-sulfonamide]: the 50% inhibitory concentration (IC50) was in the range of 50 to 500 nM.

Turning to `CN(C)c1cc(S(=O)(=O)NC2(C)COC2)cc2c1cnn2-c1nnc(C(F)F)s1` [Example 26, 1-(5-(difluoromethyl)-1,3,4-thiadiazol-2-yl)-4-(dimethylamino)-N-(3-methyloxetan-3-yl)-1H-indazole-6-sulfonamide], the IC50 fell in the range of 50 to 500 nM.

`Cc1ncc(Cn2c(=O)[nH]c3ccc(S(=O)(=O)NC4(CF)COC4)cc3c2=O)s1` [Example 28A, N-(3-(fluoromethyl)oxetan-3-yl)-3-((2-methylthiazol-5-yl)methyl)-2,4-dioxo-1,2,3,4-tetrahydroquinazoline-6-sulfonamide] displayed an IC50 of 50 to 500 nM.

As for `Cc1ncc(Cn2c(=O)c3cc(S(=O)(=O)NC4(CF)COC4)ccc3n(Cc3sc(C)nc3C)c2=O)s1` [Example 28B, 1-((2,4-dimethylthiazol-5-yl)methyl)-N-(3-(fluoromethyl)oxetan-3-yl)-3-((2-methylthiazol-5-yl)methyl)-2,4-dioxo-1,2,3,4-tetrahydroquinazoline-6-sulfonamide], the 50% inhibitory concentration (IC50) was less than 50 nM.

Molecule `CC(C)C(=O)N1CCN(c2cc(S(=O)(=O)NC3COC3)cc3c2cnn3-c2nnc(C(F)F)s2)CC1` [Example 29, 1-(5-(difluoromethyl)-1,3,4-thiadiazol-2-yl)-4-(4-isobutyrylpiperazin-1-yl)-N-(oxetan-3-yl)-1H-indazole-6-sulfonamide] came in with an IC50 of 50 to 500 nM.

`CC(C)C(=O)N1CCN(c2cc(S(=O)(=O)NC3(C#N)COC3)cc3c2cnn3-c2nnc(C(F)F)s2)CC1` [Example 30, N-(3-cyanooxetan-3-yl)-1-(5-(difluoromethyl)-1,3,4-thiadiazol-2-yl)-4-(4-isobutyrylpiperazin-1-yl)-1H-indazole-6-sulfonamide] returned an IC50 of less than 50 nM.

As for `CC(C)C(=O)N1CCN(c2cc(S(=O)(=O)NC3(C)COC3)cc3c2cnn3-c2nnc(CS(C)(=O)=O)s2)CC1` [Example 31, 4-(4-isobutyrylpiperazin-1-yl)-N-(3-methyloxetan-3-yl)-1-(5-((methylsulfonyl)methyl)-1,3,4-thiadiazol-2-yl)-1H-indazole-6-sulfonamide], the IC50 was less than 50 nM.

On to `CC(C)C(=O)N1CCN(c2cc(S(=O)(=O)NC3(C#N)COC3C)cc3c2cnn3-c2nnc(C(F)F)s2)CC1` (stereo not shown) [Example 32, N-(3-cyano-2-methyloxetan-3-yl)-1-(5-(difluoromethyl)-1,3,4-thiadiazol-2-yl)-4-(4-isobutyrylpiperazin-1-yl)-1H-indazole-6-sulfonamide], for which the IC50 lay within 50 to 500 nM.

Molecule `CC(C)S(=O)(=O)N1CCN(c2cc(S(=O)(=O)NC3(C)COC3)cc3c2cnn3-c2nnc(C(F)F)s2)CC1` [Example 33, 1-(5-(difluoromethyl)-1,3,4-thiadiazol-2-yl)-4-(4-(isopropylsulfonyl)piperazin-1-yl)-N-(3-methyloxetan-3-yl)-1H-indazole-6-sulfonamide] had an IC50 of less than 50 nM.

Take `O=C(C1CCCC1)N1CCN(c2cc(S(=O)(=O)NC3(CF)COC3)cc3c2cnn3-c2nnc(C(F)F)s2)CC1` [Example 34, 4-(4-(cyclopentanecarbonyl)piperazin-1-yl)-1-(5-(difluoromethyl)-1,3,4-thiadiazol-2-yl)-N-(3-(fluoromethyl)oxetan-3-yl)-1H-indazole-6-sulfonamide]: the IC50 was less than 50 nM.

`CN(CC(F)F)C(=O)N1CCN(c2cc(S(=O)(=O)NC3(C)COC3)cc3c2cnn3-c2nnc(C(F)F)s2)CC1` [Example 37, N-(2,2-difluoroethyl)-4-(1-(5-(difluoromethyl)-1,3,4-thiadiazol-2-yl)-6-(N-(3-methyloxetan-3-yl)sulfamoyl)-1H-indazol-4-yl)-N-methylpiperazine-1-carboxamide] yielded an IC50 of less than 50 nM.

`N#CC1(NS(=O)(=O)c2cc(N3CCN(C(=O)N4CCCC4)CC3)c3cnn(-c4nnc(C(F)F)s4)c3c2)COC1` [Example 38, N-(3-cyanooxetan-3-yl)-1-(5-(difluoromethyl)-1,3,4-thiadiazol-2-yl)-4-(4-(pyrrolidine-1-carbonyl)piperazin-1-yl)-1H-indazole-6-sulfonamide] returned an IC50 of less than 50 nM.

Molecule `N#CC1(NS(=O)(=O)c2cc(N3CCN(C(=O)C4CC4)CC3)c3cnn(-c4nnc(C(F)F)s4)c3c2)COC1` [Example 39, N-(3-cyanooxetan-3-yl)-4-(4-(cyclopropanecarbonyl)piperazin-1-yl)-1-(5-(difluoromethyl)-1,3,4-thiadiazol-2-yl)-1H-indazole-6-sulfonamide] yielded an IC50 of less than 50 nM.

For `N#CC1(NS(=O)(=O)c2cc(N3CCN(C(=O)C4CCCC4)CC3)c3cnn(-c4nnc(C(F)F)s4)c3c2)COC1` [Example 40, N-(3-cyanooxetan-3-yl)-4-(4-(cyclopentanecarbonyl)piperazin-1-yl)-1-(5-(difluoromethyl)-1,3,4-thiadiazol-2-yl)-1H-indazole-6-sulfonamide], the IC50 was less than 50 nM.

`CN(CC(F)F)C(=O)N1CCN(c2cc(S(=O)(=O)NC3(C#N)COC3)cc3c2cnn3-c2nnc(C(F)F)s2)CC1` [Example 41, 4-(6-(N-(3-cyanooxetan-3-yl)sulfamoyl)-1-(5-(difluoromethyl)-1,3,4-thiadiazol-2-yl)-1H-indazol-4-yl)-N-(2,2-difluoroethyl)-N-methylpiperazine-1-carboxamide] had an IC50 of less than 50 nM.

`Cc1nnc(-n2ncc3c(N4CCN(C(=O)C(C)C)CC4)cc(S(=O)(=O)NC4(CF)COC4)cc32)s1` [Example 42, N-(3-(fluoromethyl)oxetan-3-yl)-4-(4-isobutyrylpiperazin-1-yl)-1-(5-methyl-1,3,4-thiadiazol-2-yl)-1H-indazole-6-sulfonamide] registered an IC50 of less than 50 nM.

As for `CC(C)C(=O)N1CCN(c2cc(S(=O)(=O)NC3(CF)COC3)cc3c2cnn3-c2nnc(C3CC3)s2)CC1` [Example 43, 1-(5-cyclopropyl-1,3,4-thiadiazol-2-yl)-N-(3-(fluoromethyl)oxetan-3-yl)-4-(4-isobutyrylpiperazin-1-yl)-1H-indazole-6-sulfonamide], the IC50 is less than 50 nM.

Consider `CC(C)C(=O)N1CCN(c2cc(S(=O)(=O)NC3(CF)COC3)cc3c2cnn3-c2nncs2)CC1` [Example 44, N-(3-(fluoromethyl)oxetan-3-yl)-4-(4-isobutyrylpiperazin-1-yl)-1-(1,3,4-thiadiazol-2-yl)-1H-indazole-6-sulfonamide], for which the IC50 was less than 50 nM.
